Assay results as given in ChEMBL document CHEMBL4376834, “Discovery of 4H-Chromen-4-one Derivatives as a New Class of Selective Rho Kinase (ROCK) Inhibitors, which Showed Potent Activity in ex Vivo Diabetic Retinopathy Models” (J Med Chem, 2019).
pIC50: −log10 of the molar value.

How the values were obtained:
[1] = Inhibition of human recombinant full length AURORA-A I31F mutant using kemptide as substrate incubated for 40 mins in presence of [gamma-33P]ATPand 10 uM ATP by radiometric scintillation counting analysis
[2] = Intrinsic clearance in rat liver microsomes measured upto 45 mins in presence of NADPH by LC-MS analysis; type: ADME, Microsome; conditions: read-out: CLH
Aurora kinase C = Aurora kinase C (Homo sapiens, UniProt Q9UQB9); experiment: Inhibition of human recombinant AURORA-C (35 to end residues) using AKRRRLSSLRA as substrate incubated for 40 mins in presence of [gamma-33ATP] by radiometric scintillation counting analysis
[3] = biological target: Cyclin-dependent kinase 1/cyclin B1 (Homo sapiens, UniProt P06493); experiment: Inhibition of recombinant full length human CDK1/CyclinB using Histone H1 as substrate incubated for 40 mins in presence of [gamma-33ATP] by radiometric scintillation counting analysis; type: protein-complex assay
CDK9/cyclin T1 = CDK9/cyclin T1 (Homo sapiens, UniProt P50750); experiment: Inhibition of recombinant full length human CDK9/cyclinT1 using KTFCGTPEYLAPE as substrate incubated for 40 mins in presence of [gamma-33ATP] by radiometric scintillation counting analysis; type: protein-complex assay
Sequence of CDK9/cyclin T1 (O60563 whole entry): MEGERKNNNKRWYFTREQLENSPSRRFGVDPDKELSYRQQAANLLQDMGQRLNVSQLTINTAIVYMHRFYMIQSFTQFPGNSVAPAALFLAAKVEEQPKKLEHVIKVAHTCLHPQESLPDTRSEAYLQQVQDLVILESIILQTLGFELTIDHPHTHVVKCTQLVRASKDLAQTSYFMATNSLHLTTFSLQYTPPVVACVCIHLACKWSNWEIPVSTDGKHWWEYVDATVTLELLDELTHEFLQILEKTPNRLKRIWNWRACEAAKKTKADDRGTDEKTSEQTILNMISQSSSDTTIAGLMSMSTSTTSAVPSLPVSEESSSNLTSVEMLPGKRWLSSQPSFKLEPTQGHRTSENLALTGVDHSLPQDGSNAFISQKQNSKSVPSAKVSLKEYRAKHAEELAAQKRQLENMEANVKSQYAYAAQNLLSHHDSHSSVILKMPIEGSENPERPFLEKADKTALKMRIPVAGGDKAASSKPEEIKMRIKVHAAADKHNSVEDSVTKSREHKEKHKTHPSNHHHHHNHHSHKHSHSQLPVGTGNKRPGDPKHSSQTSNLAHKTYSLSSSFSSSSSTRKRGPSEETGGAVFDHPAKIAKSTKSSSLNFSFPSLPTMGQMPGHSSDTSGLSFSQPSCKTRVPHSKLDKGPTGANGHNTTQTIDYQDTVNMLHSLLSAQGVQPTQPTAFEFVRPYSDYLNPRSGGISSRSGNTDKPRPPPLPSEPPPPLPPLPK
Sequence of CDK9/cyclin T1 (P50750 whole entry): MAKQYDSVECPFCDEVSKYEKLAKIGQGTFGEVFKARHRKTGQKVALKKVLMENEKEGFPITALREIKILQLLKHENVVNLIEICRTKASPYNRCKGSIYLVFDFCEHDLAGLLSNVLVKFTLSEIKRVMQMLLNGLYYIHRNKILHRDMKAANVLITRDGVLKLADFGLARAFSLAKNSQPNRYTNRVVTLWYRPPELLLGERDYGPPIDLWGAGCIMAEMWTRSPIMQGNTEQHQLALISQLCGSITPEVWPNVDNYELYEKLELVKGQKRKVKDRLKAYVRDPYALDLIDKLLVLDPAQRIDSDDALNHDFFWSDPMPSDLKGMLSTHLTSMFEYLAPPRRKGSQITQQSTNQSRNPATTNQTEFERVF

[4] = biological target: Proto-oncogene tyrosine-protein kinase Src (Homo sapiens, UniProt P12931); experiment: Inhibition of recombinant human C-Src using […] as substrate incubated 40 mins in presence of [gamma-33ATP] by radiometric scintillation counting analysis
[5] = biological target: Serine/threonine-protein kinase DCLK2 (Homo sapiens, UniProt Q8N568); experiment: Inhibition of recombinant human DCAMKL2 (376 to end residues) using KKLNRTLSFAEPG as substrate after 40 mins in presence of [gamma-33ATP] by radiometric scintillation counting analysis
[6] = biological target: Serine/threonine-protein kinase D2 (Homo sapiens, UniProt Q9BZL6); experiment: Inhibition of recombinant full-length human PKD2 using KKLNRTLSVA as substrate incubated for 40 mins in presence of [gamma33P]ATP by radiometric scintillation counting analysis
[7] = biological target: Muscle, skeletal receptor tyrosine-protein kinase (Homo sapiens, UniProt O15146); experiment: Inhibition of recombinant human MUSK (530 to end residues) using myelin basic protein as substrate measured after 40 mins in presence of [gamma33P]ATP by radiometric scintillation counting analysis
[8] = biological target: Myosin light chain kinase, smooth muscle (Homo sapiens, UniProt Q15746); experiment: Inhibition of recombinant human MLCK (1425 to 1771 residues) using […] as substrate incubated for 40 mins in presence of [gamma-33ATP by radiometric scintillation counting analysis
[9] = biological target: Epidermal growth factor receptor (Homo sapiens, UniProt P00533); experiment: Inhibition of recombinant human EGFR (696 to end residues) using poly(Glu, Tyr) 4:1 as substrate after 40 mins in presence of [gamma-33ATP] by radiometric scintillation counting analysis
[10] = biological target: Epidermal growth factor receptor (Homo sapiens, UniProt P00533, L861Q); experiment: Inhibition of recombinant human EGFR L861Q mutant (696 to end residues) using poly(Glu, Tyr) 4:1 as substrate after 40 mins in presence of [gamma-33ATP] by radiometric scintillation counting analysis
Ephrin type-A receptor 7 = Ephrin type-A receptor 7 (Homo sapiens, UniProt Q15375); experiment: Inhibition of recombinant human EphA7 (613 to 909 residues) using KTFCGTPEYLAPE as substrate measured after 40 mins in presence of [gamma33ATP] by radiometric scintillation counting analysis
[11] = biological target: Inhibitor of nuclear factor kappa-B kinase subunit alpha (Homo sapiens, UniProt O15111); experiment: Inhibition of recombinant full length human IKKalpha using peptide substrate after 40 mins by [gamma-33ATP]by radiometric scintillation counting analysis
[12] = biological target: Mitogen-activated protein kinase 1 (Homo sapiens, UniProt P28482); experiment: Inhibition of recombinant full length human MAPK1 using myelin basic protein as substrate incubated for 40 mins in presence of [gamma-33ATP by radiometric scintillation counting analysis
Sequence of Mitogen-activated protein kinase 1 (P28482 whole entry): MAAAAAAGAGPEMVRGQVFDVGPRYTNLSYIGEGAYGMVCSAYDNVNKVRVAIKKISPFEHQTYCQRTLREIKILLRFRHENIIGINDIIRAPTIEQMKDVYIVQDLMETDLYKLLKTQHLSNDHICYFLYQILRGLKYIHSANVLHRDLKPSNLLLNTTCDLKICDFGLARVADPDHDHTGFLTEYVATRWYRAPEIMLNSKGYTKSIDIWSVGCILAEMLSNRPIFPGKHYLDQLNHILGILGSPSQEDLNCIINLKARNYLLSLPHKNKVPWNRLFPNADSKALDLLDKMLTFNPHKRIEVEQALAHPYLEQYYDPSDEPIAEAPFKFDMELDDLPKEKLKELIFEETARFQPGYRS

[13] = biological target: Protein-tyrosine kinase 2-beta (Homo sapiens, UniProt Q14289); experiment: Inhibition of recombinant human full length PYK2 using poly(Glu, Tyr) 4:1 as substrate incubated for 40 mins in presence of [gamma33P]ATP by radiometric scintillation counting analysis
[14] = Inhibition of recombinant human Ros V2262A mutant (1883 to end residues) using KKKSPGEYVNIEFG as substrate incubated for 40 mins in presence of [gamma33P]ATP by radiometric scintillation counting analysis
[15] = biological target: Ribosomal protein S6 kinase alpha-3 (Homo sapiens, UniProt P51812); experiment: Inhibition of recombinant human Rsk2 (2 to end residues) using KKKNRTLSVA as substrate incubated for 40 mins in presence of [gamma33P]ATP by radiometric scintillation counting analysis
[16] = biological target: Mitogen-activated protein kinase 14 (Homo sapiens, UniProt Q16539); experiment: Inhibition of recombinant human full length SAPK2a using myelin basic protein as substrate incubated for 40 mins in presence of [gamma33P]ATP by radiometric scintillation counting analysis
[17] = biological target: Mitogen-activated protein kinase 13 (Homo sapiens, UniProt O15264); experiment: Inhibition of recombinant human full length SAPK4 using myelin basic protein as substrate incubated for 40 mins in presence of [gamma33P]ATP by radiometric scintillation counting analysis
Sequence of Mitogen-activated protein kinase 13 (O15264 whole entry): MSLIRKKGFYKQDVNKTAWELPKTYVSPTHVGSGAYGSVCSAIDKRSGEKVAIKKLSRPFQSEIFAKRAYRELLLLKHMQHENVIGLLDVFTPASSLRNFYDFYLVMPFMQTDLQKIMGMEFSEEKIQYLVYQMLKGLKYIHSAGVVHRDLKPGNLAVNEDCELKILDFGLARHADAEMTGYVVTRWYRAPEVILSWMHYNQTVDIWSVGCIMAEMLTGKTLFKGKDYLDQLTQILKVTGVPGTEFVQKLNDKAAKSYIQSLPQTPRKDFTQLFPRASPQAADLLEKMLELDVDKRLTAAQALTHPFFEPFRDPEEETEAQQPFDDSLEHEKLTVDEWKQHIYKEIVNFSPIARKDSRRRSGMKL

[18] = biological target: Serine/threonine-protein kinase Sgk3 (Homo sapiens, UniProt Q96BR1); experiment: Inhibition of recombinant human SGK3 (119 to end residues) using GRPRTSSFAEGKK as substrate incubated for 40 mins in presence of [gamma33P]ATP by radiometric scintillation counting analysis
[19] = biological target: Serine/threonine-protein kinase SIK2 (Homo sapiens, UniProt Q9H0K1); experiment: Inhibition of recombinant human SIK2 (1 to 276 residues) using KKKVSRSGLYRSP as substrate incubated for 40 mins in presence of [gamma33P]ATP by radiometric scintillation counting analysis
[20] = biological target: TRAF2 and NCK-interacting protein kinase (Homo sapiens, UniProt Q9UKE5); experiment: Inhibition of human TNIK (1 to 367 residues) using RLGRDKYKTLRQI as substrate incubated for 40 mins in presence of [gamma33P]ATP by radiometric scintillation counting analysis
Sequence of TRAF2 and NCK-interacting protein kinase (Q9UKE5 whole entry, the tested form may be a part): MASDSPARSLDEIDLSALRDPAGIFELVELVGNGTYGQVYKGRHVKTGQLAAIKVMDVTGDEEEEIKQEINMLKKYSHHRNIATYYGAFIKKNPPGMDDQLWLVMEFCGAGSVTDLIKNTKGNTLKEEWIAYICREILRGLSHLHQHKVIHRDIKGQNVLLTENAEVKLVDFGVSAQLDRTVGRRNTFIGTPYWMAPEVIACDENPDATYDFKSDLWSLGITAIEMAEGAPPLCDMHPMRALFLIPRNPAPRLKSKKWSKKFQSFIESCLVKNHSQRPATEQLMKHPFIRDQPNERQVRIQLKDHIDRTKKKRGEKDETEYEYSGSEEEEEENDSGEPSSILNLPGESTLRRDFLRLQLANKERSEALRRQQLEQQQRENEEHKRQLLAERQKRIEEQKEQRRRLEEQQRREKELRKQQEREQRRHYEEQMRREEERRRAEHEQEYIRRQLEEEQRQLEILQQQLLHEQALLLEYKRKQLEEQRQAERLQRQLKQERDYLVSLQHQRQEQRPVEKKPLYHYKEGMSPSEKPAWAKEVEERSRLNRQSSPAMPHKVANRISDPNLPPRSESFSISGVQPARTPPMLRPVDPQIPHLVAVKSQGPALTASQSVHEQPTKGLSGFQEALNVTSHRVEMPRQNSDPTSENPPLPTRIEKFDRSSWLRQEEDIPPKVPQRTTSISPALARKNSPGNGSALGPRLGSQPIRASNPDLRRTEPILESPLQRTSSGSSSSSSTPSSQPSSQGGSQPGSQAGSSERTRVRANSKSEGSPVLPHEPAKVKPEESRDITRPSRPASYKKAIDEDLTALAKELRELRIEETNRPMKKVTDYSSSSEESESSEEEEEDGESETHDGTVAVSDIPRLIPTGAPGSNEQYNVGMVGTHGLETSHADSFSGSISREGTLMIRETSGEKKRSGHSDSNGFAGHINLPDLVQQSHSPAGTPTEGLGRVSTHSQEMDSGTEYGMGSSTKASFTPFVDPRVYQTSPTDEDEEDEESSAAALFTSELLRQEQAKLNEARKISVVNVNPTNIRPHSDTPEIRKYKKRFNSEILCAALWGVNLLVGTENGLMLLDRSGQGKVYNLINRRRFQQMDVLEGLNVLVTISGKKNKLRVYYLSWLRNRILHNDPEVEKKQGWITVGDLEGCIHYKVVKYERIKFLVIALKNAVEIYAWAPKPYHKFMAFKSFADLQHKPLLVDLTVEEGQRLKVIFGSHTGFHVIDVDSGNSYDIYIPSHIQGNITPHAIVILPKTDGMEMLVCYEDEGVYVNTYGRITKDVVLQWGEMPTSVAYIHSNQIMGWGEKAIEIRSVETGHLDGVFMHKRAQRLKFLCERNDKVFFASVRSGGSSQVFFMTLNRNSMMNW

[21] = biological target: NT-3 growth factor receptor (Homo sapiens, UniProt Q16288); experiment: Inhibition of recombinant human TRKC (510 to end residues) using GEEPLYWSFPAKK as substrate incubated for 40 mins in presence of [gamma33P]ATP by radiometric scintillation counting analysis
[22] = biological target: Testis-specific serine/threonine-protein kinase 2 (Homo sapiens, UniProt Q96PF2); experiment: Inhibition of recombinant full-length human TSSK2 using KKKVSRSGLYRSP as substrate incubated for 40 mins in presence of [gamma33P]ATP by radiometric scintillation counting analysis
Sequence of Testis-specific serine/threonine-protein kinase 2 (Q96PF2 whole entry, the tested form may be a part): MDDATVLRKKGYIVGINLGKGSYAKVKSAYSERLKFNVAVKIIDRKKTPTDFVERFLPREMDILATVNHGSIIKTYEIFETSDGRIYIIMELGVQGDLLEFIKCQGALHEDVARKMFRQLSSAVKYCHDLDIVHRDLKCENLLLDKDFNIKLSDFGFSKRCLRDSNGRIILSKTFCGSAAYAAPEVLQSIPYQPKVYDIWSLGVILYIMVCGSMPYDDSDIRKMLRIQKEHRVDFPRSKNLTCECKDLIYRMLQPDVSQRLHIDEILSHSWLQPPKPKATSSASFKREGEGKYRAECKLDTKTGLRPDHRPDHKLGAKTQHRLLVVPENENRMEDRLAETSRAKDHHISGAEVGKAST

Tau-tubulin kinase 1 = Tau-tubulin kinase 1 (Homo sapiens, UniProt Q5TCY1); experiment: Inhibition of recombinant human TTBK1 (1 to 479 residues) using casein as substrate incubated for 40 mins in presence of [gamma33P]ATP by radiometric scintillation counting analysis
Sequence of Tau-tubulin kinase 1 (Q5TCY1 whole entry, the tested form may be a part): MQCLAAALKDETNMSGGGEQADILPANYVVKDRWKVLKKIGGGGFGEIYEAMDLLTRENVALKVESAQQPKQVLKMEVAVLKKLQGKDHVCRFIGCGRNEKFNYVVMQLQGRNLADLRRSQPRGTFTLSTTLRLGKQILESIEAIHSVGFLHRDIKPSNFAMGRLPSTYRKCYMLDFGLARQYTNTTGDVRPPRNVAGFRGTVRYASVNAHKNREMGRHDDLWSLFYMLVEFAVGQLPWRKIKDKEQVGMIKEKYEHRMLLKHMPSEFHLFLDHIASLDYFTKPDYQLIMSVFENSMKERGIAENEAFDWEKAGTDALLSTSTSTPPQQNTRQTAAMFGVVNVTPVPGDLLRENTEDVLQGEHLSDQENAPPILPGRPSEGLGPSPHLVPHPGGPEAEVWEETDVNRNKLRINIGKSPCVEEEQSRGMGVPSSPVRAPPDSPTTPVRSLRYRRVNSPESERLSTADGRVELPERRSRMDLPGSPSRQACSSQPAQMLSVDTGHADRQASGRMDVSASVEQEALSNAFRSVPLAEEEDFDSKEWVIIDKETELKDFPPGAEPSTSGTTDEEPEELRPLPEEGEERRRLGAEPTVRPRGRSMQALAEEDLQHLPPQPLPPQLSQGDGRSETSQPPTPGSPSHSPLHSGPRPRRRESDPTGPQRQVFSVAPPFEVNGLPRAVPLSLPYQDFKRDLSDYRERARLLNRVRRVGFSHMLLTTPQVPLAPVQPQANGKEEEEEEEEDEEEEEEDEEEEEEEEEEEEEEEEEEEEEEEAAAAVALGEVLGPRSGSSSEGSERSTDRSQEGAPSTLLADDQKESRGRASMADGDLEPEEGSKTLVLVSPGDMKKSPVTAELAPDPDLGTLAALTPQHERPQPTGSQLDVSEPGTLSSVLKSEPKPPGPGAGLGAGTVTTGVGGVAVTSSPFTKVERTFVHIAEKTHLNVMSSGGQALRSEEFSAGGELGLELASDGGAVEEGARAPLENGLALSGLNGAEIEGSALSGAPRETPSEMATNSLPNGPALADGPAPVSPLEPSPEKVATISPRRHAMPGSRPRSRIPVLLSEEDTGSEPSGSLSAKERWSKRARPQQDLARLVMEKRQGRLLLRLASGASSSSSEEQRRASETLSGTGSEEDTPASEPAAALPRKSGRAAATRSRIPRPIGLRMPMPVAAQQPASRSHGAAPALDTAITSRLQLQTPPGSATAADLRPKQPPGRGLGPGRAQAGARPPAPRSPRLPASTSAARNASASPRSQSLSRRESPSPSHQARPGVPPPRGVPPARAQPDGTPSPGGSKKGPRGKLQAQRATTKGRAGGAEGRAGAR

Structure (SMILES): CN(C)c1ccc(C(=O)Nc2cccc(NC(=O)COc3ccc4c(=O)ccoc4c3)c2)cc1
- pIC50 [1]: 5.97
- CLint scaled [2]: 2260 mL/min/kg
- pIC50 (Aurora kinase C): < 5.00
- pIC50 [3]: < 5.00
- pIC50 (CDK9/cyclin T1): < 5.00
- pIC50 [4]: < 5.00
- pIC50 [5]: < 5.00
- pIC50 [6]: < 5.00
- pIC50 [7]: < 5.00
- pIC50 [8]: < 5.00
- pIC50 [9]: < 5.00
- pIC50 [10]: < 5.00
- pIC50 (Ephrin type-A receptor 7): < 5.00
- pIC50 [11]: < 5.00
- pIC50 [12]: < 5.00
- pIC50 [13]: < 5.00
- pIC50 [14]: < 5.00
- pIC50 [15]: < 5.00
- pIC50 [16]: < 5.00
- pIC50 [17]: < 5.00
- pIC50 [18]: < 5.00
- pIC50 [19]: < 5.00
- pIC50 [20]: < 5.00
- pIC50 [21]: < 5.00
- pIC50 [22]: < 5.00
- pIC50 (Tau-tubulin kinase 1): < 5.00
